ChEMBL document CHEMBL3286140, “Synthesis and biological evaluation of salpichrolide analogs as antiestrogenic agents” (Eur J Med Chem, 2014)
Calls of active or inactive are those of the source. The calls are words filed in the database; no cut-off is given here.

Assays:
MCF7 [1] = test: Inhibition of 17beta-estradiol-induced in ERalpha positive human MCF7 cells proliferation assessed as [3H]-thymidine incorporation at 10 nM after 72 hrs by liquid scintillation counting; format: functional, cell-based
MCF7 [2] = test: Inhibition of 17beta-estradiol-induced in ERalpha positive human MCF7 cells proliferation assessed as [3H]-thymidine incorporation after 72 hrs by liquid scintillation counting; format: functional, cell-based
MCF7 [3] = test: Inhibition of 17beta-estradiol-induced in ERalpha positive human MCF7 cells proliferation assessed as [3H]-thymidine incorporation at 1 uM after 72 hrs by liquid scintillation counting; format: functional, cell-based
MCF7 [4] = test: Inhibition of 17beta-estradiol-induced in ERalpha positive human MCF7 cells proliferation assessed as [3H]-thymidine incorporation at 100 nM after 72 hrs by liquid scintillation counting; format: functional, cell-based
MDA-MB-231 [5] = test: Inhibition of 17beta-estradiol-induced in ERalpha negative human MDA-MB-231 cells proliferation assessed as [3H]-thymidine incorporation after 72 hrs by liquid scintillation counting; format: functional, cell-based
MDA-MB-231 [6] = test: Cytotoxicity against ERalpha negative human MDA-MB-231 cells at 10 nM and 1 uM; format: cell-based; settings: mda-mb-231, 0.01 µM
MCF7 [7] = test: Cytotoxicity against ERalpha positive human MCF7 cells at 10 nM and 1 uM; format: cell-based; settings: mcf7, 0.01 µM

C[C@]12CC[C@@H]3c4ccc(O)cc4C[C@@H](CCCCCCCCC[S+]([O-])CCCC(F)(F)C(F)(F)F)[C@H]3[C@@H]1CC[C@@H]2O (stereo not given in full) [FULVESTRANT]
inhibition (MCF7 [1]): Active | IC50 (MCF7 [2]): 0.0019 µM

CC(=O)c1ccc2c(c1)CC[C@H]1[C@H]2CC[C@H]2CC=C[C@H](O)[C@@]21C
inhibition (MCF7 [3]): inactive

CC(=O)c1ccc2c(c1)CC[C@H]1[C@H]2CC[C@H]2CC=CC(=O)[C@@]21C
inhibition (MCF7 [4]): Active | IC50 (MCF7 [2]): 0.05 µM | inhibition (MDA-MB-231 [5]): inactive

C[C@@H](c1cc(O)c2c(c1)CC[C@H]1[C@H]2C[C@@H]2O[C@@]23CC=CC(=O)[C@]13C)[C@@H]1C[C@@H]2O[C@@H]2[C@H](O)O1 [SALPICHROLIDE G]
Activity (MDA-MB-231 [6]): Toxic | IC50 (MCF7 [2]): 0.14 µM | Activity (MCF7 [7]): Toxic

CC(=O)c1ccc2c(c1)CC[C@H]1[C@H]2CC[C@H]2C[C@@H](O)CC[C@@]21C
inhibition (MCF7 [4]): Active | IC50 (MCF7 [2]): 0.33 µM | inhibition (MDA-MB-231 [5]): inactive

C[C@@H](c1ccc2c(c1)CC[C@H]1[C@H]2C[C@@H]2O[C@@]23CC=C[C@H](O)[C@]13C)[C@H]1C[C@]2(C)O[C@]2(C)[C@H](O)O1
IC50 (MCF7 [2]): 0.018 µM

CC(=O)c1ccc2c(c1)CC[C@H]1[C@H]2C[C@@H]2O[C@@]23C[C@@H](O)CC[C@]13C
inhibition (MCF7 [2]): inactive

CC(=O)c1ccc2c(c1)CC[C@H]1[C@H]2C[C@H]2O[C@]23C[C@@H](O)CC[C@]13C
inhibition (MCF7 [3]): inactive
